Measured values taken from the NIST ThermoML archive (doi:10.1021/je900632q).

Details: 101.3 kPa, Liquid

CCCCn1cc[n+](C)c1.N#CN=C=[N-] [1-butyl-3-methylimidazolium dicyanamide]
Details	mass density [kg/m3]	viscosity [mPa·s]
278.15 K	1075.8	82.07
283.15 K	1072.6	62.54
288.15 K	1069.4	48.93
293.15 K	1066.2	39.14
298.15 K	1063.1	31.8
303.15 K	1059.9	26.29
308.15 K	1056.8	21.79
313.15 K	1053.7	18.5
318.15 K	1050.6	15.88
323.15 K	1047.5	13.78
328.15 K	1044.4	12.06
333.15 K	1041.3	10.65
338.15 K	1038.2	9.475
343.15 K	1035.1	8.485
348.15 K	1032.1	7.643
353.15 K	1029	6.923
358.15 K	1025.8	6.304
363.15 K	1022.7	5.77
